{"source": "patent EP0767778B1", "about": "“1-PHENOXY-3-N-ALKYLAMINOPROPAN-2-OL HALOGEN DERIVATIVES USEFUL AS MYOCARDIAL beta [sequence] RECEPTOR MARKERS AND AS beta-BLOCKING AGENTS” (CIS BIO INTERNATIONAL, priority 1994, dated 1996)", "key": {"[1]": {"tested_on": "récepteurs β adrénergiques", "experiment": "isolated perfused rat heart (Langendorff), antagonism of isoprenaline on dP/dt max", "description": "Dans cet exemple, on teste la propriété pharmacologique antagoniste du composé 6 vis-à-vis des récepteurs β adrénergiques.\nL'expérience est conduite sur coeur de rat isolé et perfusé selon la technique de Langendorff.\nAprès une préperfusion de 25 minutes avec une solution de Krebs-Henseleit, le coeur est perfusé avec de l'isoprénaline à la concentration de 10^-8M pendant 10 minutes; puis avec une solution d'isoprénaline à 10^-8M associée à la molécule à tester à la concentration de 10^-6M.\nSi la molécule à tester diminue la dP/dt max en présence d'isoprénaline, on pourra affirmer que cette molécule se comporte comme un antagoniste de l'isoprénaline vis-à-vis des récepteurs β adrénergiques."}, "[2]": {"target": "récepteurs β adrénergiques", "experiment": "displacement of [^3H]CGP 12177 previously bound on newborn rat cardiomyocytes", "assay_type": "binding, rats nouveau-nés", "conditions": "read-out: CI50 (the source's name)", "description": "Dans cet exemple, on teste l'affinité du composé 6 marqué avec ^123I vis-à-vis des récepteurs β adrénergiques.\nOn étudie sur cardiomyocytes de rats nouveau-nés la capacité du composé 6 à déplacer le [^3H]CGP 12177 préalablement fixé sur les récepteurs."}, "[3]": {"experiment": "biodistribution study in the mouse (Example 22)", "assay_type": "in vivo, souris", "conditions": "for Biodistribution Coeur / Biodistribution Poumon: souris swiss femelles, injection intraveineuse", "description": "L'étude de la biodistribution des radioligands chez la souris, permet d'apprécier l'intensité relative de la fixation cardiaque de la molécule et son évolution dans le temps.\nAprès marquage à l'iode 123 et purification par CLHP 20µCi environ de produit sont mis en solution dans 5 ml d'une solution : éthanol 20%-sérum physiologique 80%. Après injection intraveineuse de 25 µl de cette solution dans la queue de souris vigiles (souris swiss femelles de 20 à 25 g), celles-ci (5 à chaque fois) sont sacrifiées à différents temps après l'injection. On mesure pour chaque souris les activités cardiaques, hépatique, rénale et pulmonaire. Les résultats sont exprimés en pourcentage de la dose injectée par gramme d'organe.\nLe CGP12177 étant la référence, un lot de souris a été étudié après injection de CGP 12177 marqué au tritium."}, "[4]": {"experiment": "octanol-water partition coefficient at room temperature", "assay_type": "physicochemical", "conditions": "température ambiante"}, "[5]": {"experiment": "radioactivity in organs after injection in the mouse (Example 10)", "assay_type": "in vivo", "conditions": "souris, 329.10^-12 mol", "description": "Dans cet exemple, on teste chez la souris les propriétés du [^123I] - composé 6 comme traceur radioactif pour l'examen du myocarde.\nAprès injection de 500.10^-12 mol de [^123I]-composé 6, les animaux sont sacrifiés et les organes d'intérêt récupérés et comptés. Le tableau 3 qui suit reporte les valeurs de la radioactivité trouvée dans les organes ou liquides biologiques exprimées en pourcentage de la dose injectée par gramme d'organe. TABLEAU 3 :\nDans le tableau 4 qui suit, on a donné à titre comparatif les résultats obtenus lorsqu'on injecte 329.10^-12 mol de [^3H]CGP 12177."}, "[6]": {"conditions": "[^3H]CGP 12177 5.10^-9M, 30 minutes d'incubation, cardiomyocytes de rats nouveau-nés"}}, "note": "Like-named read-outs stand apart in the source and are kept apart here."}
{"compound": "CC(C)NCC(O)COc1ccc(NC(=O)CCC=CI)cc1", "note": "(stereo not shown) [composé 6, 1-[4-(4-iodobut-3-énamido)phénoxy]-3-N-isopropyl aminopropan-2-ol]", "values": [{"measurement": "DP/dt max", "setting": "[1]; Isoprénaline + molécule (10^e+8 min), isoprénaline 10^-8M, test molecule 10^-6M, n=6", "value": "973±240", "unit": "mmHg/min"}, {"measurement": "pourcentage d'inhibition vis-à-vis de l'isoprénaline", "setting": "[1]; effet antagoniste, summary", "value": 116, "unit": "%"}, {"measurement": "effect on the action of isoprénaline on dP/dt max", "setting": "[1]; isoprénaline 10^-8M + molecule 10^-6M", "value": "antagonise complètement l'action de l'isoprénaline"}, {"measurement": "IC50", "setting": "[2]; [6]", "value": 2, "unit": "µM"}, {"measurement": "IC50", "setting": "[2]; summary, unit inferred", "value": 2.04, "unit": "µM"}]}
{"compound": "CC(C)NCC(O)COc1ccc(CC(N)=O)cc1", "note": "(stereo not shown) [atenolol, reference compound]", "values": [{"measurement": "IC50", "setting": "[2]; [6]", "value": 19, "unit": "µM"}]}
{"compound": "(2S)-4 (3-t-butylamino-2-hydroxypropoxy)-benzimidazol-2-one [[^3H]-CGP 12177, reference compound]", "values": [{"measurement": "Biodistribution Coeur", "setting": "[3]; 1 min.", "value": "9 ± 1,4 pourcentage de la dose injectée par gramme d'organe"}, {"measurement": "Biodistribution Poumon", "setting": "[3]; 1 min.", "value": "66,3 ± 9,2 pourcentage de la dose injectée par gramme d'organe"}, {"measurement": "Biodistribution Coeur", "setting": "[3]; 2 min.", "value": "7,2 ± 0,9 pourcentage de la dose injectée par gramme d'organe"}, {"measurement": "Biodistribution Poumon", "setting": "[3]; 2 min.", "value": "44,3 ± 8,6 pourcentage de la dose injectée par gramme d'organe"}, {"measurement": "Biodistribution Coeur", "setting": "[3]; 5 min.", "value": "7,0 ± 1 pourcentage de la dose injectée par gramme d'organe"}, {"measurement": "Biodistribution Poumon", "setting": "[3]; 5 min.", "value": "37,9 ± 9,3 pourcentage de la dose injectée par gramme d'organe"}, {"measurement": "Biodistribution Coeur", "setting": "[3]; 10 min.", "value": "6,7 ± 1,3 pourcentage de la dose injectée par gramme d'organe"}, {"measurement": "Biodistribution Poumon", "setting": "[3]; 10 min.", "value": "42 ± 8,5 pourcentage de la dose injectée par gramme d'organe"}, {"measurement": "activité dans le myocarde (plateau)", "setting": "[3]; souris, plateau dès la 2ème minute après l'injection", "value": "~7 % de la dose injectée par gramme d'organe"}, {"measurement": "COEFFICIENT DE PARTAGE OCTANOL-EAU", "setting": "[4]; pH=4,2", "value": "0,0088"}, {"measurement": "COEFFICIENT DE PARTAGE OCTANOL-EAU", "setting": "[4]; pH=7,4", "value": "0,18"}, {"measurement": "radioactivité COEUR", "setting": "[5]; 1 min", "value": "6,8±4 pourcentage de la dose injectée par gramme d'organe"}, {"measurement": "radioactivité POUMON", "setting": "[5]; 1 min", "value": "26,3±2,1 pourcentage de la dose injectée par gramme d'organe"}, {"measurement": "radioactivité COEUR", "setting": "[5]; 2 min", "value": "6,3±0,3 pourcentage de la dose injectée par gramme d'organe"}, {"measurement": "radioactivité POUMON", "setting": "[5]; 2 min", "value": "31,6±6,8 pourcentage de la dose injectée par gramme d'organe"}, {"measurement": "radioactivité COEUR", "setting": "[5]; 5 min", "value": "5,9±0,8 pourcentage de la dose injectée par gramme d'organe"}, {"measurement": "radioactivité POUMON", "setting": "[5]; 5 min", "value": "29,7±5,8 pourcentage de la dose injectée par gramme d'organe"}, {"measurement": "radioactivité COEUR", "setting": "[5]; 10 min", "value": "5,3±0,2 pourcentage de la dose injectée par gramme d'organe"}, {"measurement": "radioactivité POUMON", "setting": "[5]; 10 min", "value": "29±5,1 pourcentage de la dose injectée par gramme d'organe"}]}
